This assay relates to Xanthomonas campestris. As to the kind of experiment: Antimicrobial activity against Xanthomonas campestris at 0.5 mg/disk. Type of assay: functional.

Each structure is given as a SMILES string.

For the molecule `O=c1cc(-c2ccc(O)c(O)c2)oc2cc(O[C@@H]3O[C@H](CO)[C@@H](O)[C@H](O)[C@H]3O)cc(O)c12` [GALUTEOLIN], the “inhibition zone (IZ)” value was 3 mm.
